We go through two molecules from PubChem BioAssay (NCI).

Among the test systems are SR leukemia; RXF 393 renal; UACC-62 melanoma; HCC-2998 colon; SK-MEL-2 melanoma; 786-0 renal; LOX IMVI melanoma; ACHN renal; SK-MEL-5 melanoma; SW-620 colon.
Holding throughout (test): DTP human tumour cell line panel, 48 h

Each structure is given as a SMILES string.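 Method: 48-hour compound exposure of cells in 96-well plates, five concentrations, linear interpolation of endpoints. The concentration for 50% growth inhibition is given as GI50. At the TGI there is no net growth.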

The GI50 is the concentration giving 50% growth inhibition. As usually defined, the TGI is the concentration giving total growth inhibition. With `Cc1c(C(=O)Nc2ccccc2)sc2ncn(Cc3cccc(Cl)c3)c(=O)c12`, the GI50 with SR leukemia was 14.8 µM; in the test on RXF 393 renal it was 24.8 µM; in the test with UACC-62 melanoma, 18.8 µM; in the test on HCC-2998 colon it was 4.67 µM; in the test with SK-MEL-2 melanoma, 49.2 µM; in the test with 786-0 renal, 29.6 µM. Moreover, the GI50 with LOX IMVI melanoma is 57.3 µM; in the test with ACHN renal, 30.2 µM; in the test on SK-MEL-5 melanoma, 25.7 µM; in the test on SW-620 colon it was 53.3 µM. Also, the total growth inhibition concentration (TGI) in the test on SR leukemia is 53 µM; in the test with RXF 393 renal, 71.4 µM; in the test with UACC-62 melanoma, greater than 100 µM; with HCC-2998 colon it was 67.8 µM; with SK-MEL-2 melanoma, greater than 100 µM; in the test on 786-0 renal it was greater than 100 µM. The TGI in the test on LOX IMVI melanoma, with ACHN renal, in the test on SK-MEL-5 melanoma and with SW-620 colon was greater than 100 µM throughout.

`COc1ccc2c(c1)C(=O)c1ccc(OC)cc1C2=S`: the TGI with SR leukemia, with RXF 393 renal, with UACC-62 melanoma, in the test on HCC-2998 colon, in the test with SK-MEL-2 melanoma and in the test on 786-0 renal was greater than 100 µM in each case. The concentration for total growth inhibition (TGI) in the test on LOX IMVI melanoma, with ACHN renal, in the test on SK-MEL-5 melanoma and with SW-620 colon was greater than 100 µM in each case.
